Holding throughout (assay type): physicochemical
Data set [1] is described as follows: Dispersion in aqueous 0.4% Carbopol solution (electrode gel solution for iontophoresis). As for the experimental part:
Carbopol (Carbopol 940, manufactured by B. F. Goodrich, 0.2 g) was dissolved in 0.3% citrate buffer (pH 6). The pH level of this solution was adjusted at 6 with sodium hydroxide to bring the total amount of the solution to 50 g, and a solution of 0.4% Carbopol (hereafter referred to as an "aqueous 0.4% Carbopol solution") was obtained. The CoQ10-surfactant composite (CoQ10-HydroS, 5 g) obtained in Production Example 14 was dispersed in 50 g of an aqueous 0.4% Carbopol solution with the use of an agitation blade, and a clear homogeneous solution was obtained (hereafter referred to as an "aqueous 0.4% Carbopol solution containing CoQ10-HydroS").
In this case, CoQ10 remained suspended in the solution. […] Thus, CoQ10, which is a low-solubility, nutritional factor, was prepared in the form of a CoQ10-surfactant composite (CoQ10-HydroS), and an aqueous solution for an electrode gel containing a nutritional factor for iontophoresis homogeneously dispersed/dissolved in water was obtained.

Data set [2] in a line: Long-term stability (2-year) at room temperature, browning. The note with it: stored at room temperature for 2 years. The source says:
Long-term stability (2-year) was inspected at room temerature using S/O VC·PMg obtained in Production Example 5. A non-S/O VC·PMg solution was used as a positive control, and a dispersion medium used for S/O preparation was used as a negative control.
The photograph shown in Fig. 6 was stored at room temperature for 2 years.

A short description of data set [3]: Dispersion in olive oil together with vitamin E (VE). The source says:
The VC·PMg-surfactant composite (VC·PMg-LipoS, 5g) obtained in Production Example 12 and 0.5 g of vitamin E (VE) were dispersed in 1 kg of olive oil with the use of an agitation blade, and a clear homogeneous solution was obtained. This homogeneous solution was subjected to plastic filling with the use of a rotary soft capsule filling machine in constant amounts of 0.4 g, and soft capsules containing VC·PMg and VE with high content uniformity were obtained. Soft capsules could be produced in a twist-off form as well as in a general oval form. Similarly, constant amounts of 0.1 g were subjected to plastic filling with the use of a seamless soft capsule filling machine to obtain soft capsules containing VC·PMg and VE with high content uniformity. […] In this case, VC·PMg remained suspended in the solution. […] The formed soft capsules were packaged in easy-peel blister packs composed of a plastic film and an aluminum film. Thus, products that allow soft capsules with a low degree of hardness to be easily removed and are clean and easy to carry were obtained. Soft capsules were also packaged in press-through blister packs.

For `COC1=C(OC)C(=O)C(C/C=C(\C)CC/C=C(\C)CC/C=C(\C)CC/C=C(\C)CC/C=C(\C)CC/C=C(\C)CC/C=C(\C)CC/C=C(\C)CC/C=C(\C)CCC=C(C)C)=C(C)C1=O` [CoQ10, ubiquinone], the “appearance of the dispersion” value in data set [1] (dispersed in 50 g of aqueous 0.4% Carbopol solution (pH 6)) is “a clear solution was not obtained”. Also, in data set [1] (in 50 g of aqueous 0.4% Carbopol solution containing 4.5 g of SLS, allowed to stand), the “appearance when allowed to stand” value is “a precipitate was observed”.
Take `O=C1O[C@H]([C@@H](O)CO)C([O-])=C1OP(=O)([O-])[O-].O=C1O[C@H]([C@@H](O)CO)C([O-])=C1OP(=O)([O-])[O-].[Mg+2].[Mg+2].[Mg+2]` [VC·PMg solution, magnesium ascorbyl phosphate]: in data set [2], the browning result is on record as “browned with the elapse of time”.
With `O=C1O[C@H]([C@@H](O)CO)C([O-])=C1OP(=O)([O-])[O-].O=C1O[C@H]([C@@H](O)CO)C([O-])=C1OP(=O)([O-])[O-].[Mg+2].[Mg+2].[Mg+2]` [VC·PMg, magnesium ascorbyl phosphate], in data set [3] (dispersed with 0.5 g VE in 1 kg of olive oil), the “appearance of the dispersion” value is on record as “a clear solution was not obtained”. Also, the “appearance when allowed to stand” value in data set [3] (with 0.5 g VE in 1 kg of olive oil containing 4.5 g ER-290, allowed to stand) was “a precipitate was observed”.

The values are drawn from patent publication EP2298282B1, “COMBINATION OF DRUGS HAVING DIFFERENT PHYSICAL PROPERTIES INTO SINGLE DOSAGE FORM” (Cocokara fine Healthcare Inc., priority 2008, dated 2009).
